{"source": "paper PMC4331153", "about": "“In Vitro Inhibitory and Cytotoxic Activity of MFM 501, a Novel Codonopsinine Derivative, against Methicillin-Resistant Staphylococcus aureus Clinical Isolates” (BioMed Research International, 2015)", "assay_type_in_all_cases": "cell-based", "key": {"[1]": {"tested_on": "S. aureus ATCC 33591 (MRSA reference strain)", "experiment": "MIC determination, broth microdilution, ATCC 33591", "conditions": "Staphylococcus aureus"}, "S. aureus isolate U949": {"tested_on": "S. aureus isolate U949", "experiment": "MIC determination, broth microdilution, isolate U949", "conditions": "Staphylococcus aureus"}, "[2]": {"tested_on": "S. aureus ATCC 25923 (MSSA reference strain)", "experiment": "MIC determination, broth microdilution, ATCC 25923", "conditions": "Staphylococcus aureus"}, "S. aureus isolate N441": {"tested_on": "S. aureus isolate N441", "experiment": "MIC determination, broth microdilution, isolate N441", "conditions": "Staphylococcus aureus"}, "[3]": {"tested_on": "S. aureus isolates (MRSA and MSSA)", "experiment": "MIC determination, S. aureus isolates (MRSA and MSSA)", "conditions": "Staphylococcus aureus, ATCC 25923 / ATCC 33591 / MRSA / MSSA; all four test isolates (N441, U949, ATCC 25923, ATCC 33591), preliminary evaluation"}}, "note": "Like-named read-outs stand apart in the source and are kept apart here."}
{"molecule": "C=CCOc1ccc(C2C(C(=O)OCC)=C(O)C(=O)N2C)cc1", "note": "(stereo not drawn) [27e]", "values": [{"measurement": "MIC", "setting": "[1]; ATCC 33591, read-out: MIC", "value": "> 1000", "unit": "µg/mL"}, {"measurement": "MIC", "setting": "S. aureus isolate U949; isolate U949, read-out: MIC", "value": "> 1000", "unit": "µg/mL"}, {"measurement": "MIC", "setting": "[2]; ATCC 25923, read-out: MIC", "value": "> 1000", "unit": "µg/mL"}, {"measurement": "MIC", "setting": "S. aureus isolate N441; isolate N441, read-out: MIC", "value": "> 1000", "unit": "µg/mL"}]}
{"molecule": "Cc1onc(-c2ccccc2)c1C(=O)N[C@@H]1C(=O)N2[C@@H]1SC(C)(C)[C@@H]2C(=O)O", "note": "[Oxacillin, reference compound]", "values": [{"measurement": "MIC", "setting": "[1]; ATCC 33591, read-out: MIC", "value": 250, "unit": "µg/mL"}, {"measurement": "MIC", "setting": "S. aureus isolate U949; isolate U949, read-out: MIC", "value": 500, "unit": "µg/mL"}, {"measurement": "MIC", "setting": "[2]; ATCC 25923, read-out: MIC", "value": 0.24, "unit": "µg/mL"}, {"measurement": "MIC", "setting": "S. aureus isolate N441; isolate N441, read-out: MIC", "value": 500, "unit": "µg/mL"}]}
{"molecule": "CCOC(=O)C1=C(O)C(=O)N(Cc2ccccc2)C1c1ccc(OC)cc1", "note": "(stereo not drawn) [26e]", "values": [{"measurement": "MIC", "setting": "[1]; ATCC 33591, read-out: MIC", "value": 125, "unit": "µg/mL"}, {"measurement": "MIC", "setting": "S. aureus isolate U949; isolate U949, read-out: MIC", "value": 250, "unit": "µg/mL"}, {"measurement": "MIC", "setting": "[2]; ATCC 25923, read-out: MIC", "value": 250, "unit": "µg/mL"}, {"measurement": "MIC", "setting": "[3]", "value": "125 to 250", "unit": "µg/mL"}, {"measurement": "MIC", "setting": "S. aureus isolate N441; isolate N441, read-out: MIC", "value": 125, "unit": "µg/mL"}]}
{"molecule": "CCOC(=O)C1=C(O)C(=O)N(C)C1c1ccc(C)cc1", "note": "(stereo not drawn) [compound 19e]", "values": [{"measurement": "MIC", "setting": "[1]; ATCC 33591, read-out: MIC", "value": 500, "unit": "µg/mL"}, {"measurement": "MIC", "setting": "S. aureus isolate U949; isolate U949, read-out: MIC", "value": 500, "unit": "µg/mL"}, {"measurement": "MIC", "setting": "[2]; ATCC 25923, read-out: MIC", "value": 1000, "unit": "µg/mL"}, {"measurement": "MIC", "setting": "[3]", "value": "500 to 1000", "unit": "µg/mL"}, {"measurement": "MIC", "setting": "S. aureus isolate N441; isolate N441, read-out: MIC", "value": 500, "unit": "µg/mL"}]}
{"molecule": "CN[C@H](CC(C)C)C(=O)N[C@H]1C(=O)N[C@@H](CC(N)=O)C(=O)N[C@H]2C(=O)N[C@H]3C(=O)N[C@H](C(=O)N[C@H](C(=O)O)c4cc(O)cc(O)c4-c4cc3ccc4O)[C@H](O)c3ccc(c(Cl)c3)Oc3cc2cc(c3O[C@@H]2O[C@H](CO)[C@@H](O)[C@H](O)[C@H]2O[C@H]2C[C@](C)(N)[C@H](O)[C@H](C)O2)Oc2ccc(cc2Cl)[C@H]1O", "note": "[Vancomycin, reference compound]", "values": [{"measurement": "MIC", "setting": "[1]", "value": 3.13, "unit": "µg/mL"}, {"measurement": "MIC", "setting": "S. aureus isolate U949", "value": 1.56, "unit": "µg/mL"}, {"measurement": "MIC", "setting": "[2]", "value": 0.78, "unit": "µg/mL"}, {"measurement": "MIC", "setting": "S. aureus isolate N441", "value": 1.56, "unit": "µg/mL"}]}
{"molecule": "CCCCCCC1C(C(=O)OCC)=C(O)C(=O)N1C", "note": "(stereo not drawn) [16e]", "values": [{"measurement": "MIC", "setting": "[1]; ATCC 33591, read-out: MIC", "value": 125, "unit": "µg/mL"}, {"measurement": "MIC", "setting": "S. aureus isolate U949; isolate U949, read-out: MIC", "value": 125, "unit": "µg/mL"}, {"measurement": "MIC", "setting": "[2]; ATCC 25923, read-out: MIC", "value": 250, "unit": "µg/mL"}, {"measurement": "MIC", "setting": "[3]", "value": "125 to 250", "unit": "µg/mL"}, {"measurement": "MIC", "setting": "S. aureus isolate N441; isolate N441, read-out: MIC", "value": 125, "unit": "µg/mL"}]}
